What was measured:
Format in all cases: cell-based
[1] = test system: Moraxella catarrhalis; experiment: MIC against Gram-negative bacteria: Moraxella catarrhalis; settings: for MIC: M. catarrhalis
Summary of the method: (§1)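 MIC = lowest concentration of recombinant protein showing no growth. Test proteins: purified human-derived EGF domain proteins, two-fold dilution series, three wells per concentration; inoculum 5×10^5 CFU/mL in LB; incubation 37° C with shaking at 175 rpm.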

[2] = test system: Pseudomonas aeruginosa; experiment: MIC against Gram-negative bacteria: Pseudomonas aeruginosa; settings: for MIC: P. aeruginosa
Summary of the method: as §1

[3] = test system: Proteus vulgaris; experiment: MIC against Gram-negative bacteria: Proteus vulgaris; settings: for MIC: P. vulgaris
Summary of the method: as §1

[4] = test system: Enterobacter cloacae; experiment: MIC against Gram-negative bacteria: Enterobacter cloacae; settings: for MIC: E. cloacae
Summary of the method: as §1

[5] = test system: Aeromonas hydrophila; experiment: MIC against Gram-negative bacteria: Aeromonas hydrophila; settings: for MIC: A. hydrophila
Summary of the method: as §1

[6] = test system: E. coli DH5α; experiment: Antibacterial activity: MIC and growth curve against E. coli DH5α in 96-well plate; settings: minimal inhibitory concentration against E. coli DH5α; 96-well plate, 5×10^5 CFU/mL, 37° C., judged after 8 h
Summary of the method: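 Log-phase bacteria (OD600 ~0.5) resuspended in LB at 5×10^5 CFU/mL, exposed to recombinant protein at 50, 25, 12.5 μg/mL final in triplicate, 37 °C shaking at 175 rpm. OD600 read every 30 min; MIC is lowest concentration showing no growth.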

[7] = test system: Klebsiella pneumonia; experiment: MIC against Gram-negative bacteria: Klebsiella pneumonia; settings: for MIC: K. pneumonia
Summary of the method: as §1

[8] = test system: Citrobacter diversus; experiment: MIC against Gram-negative bacteria: Citrobacter diversus; settings: for MIC: C. diversus
Summary of the method: as §1

[9] = test system: E. coli BL21; experiment: MIC against Gram-negative bacteria: E. coli BL21
Summary of the method: as §1

[10] = test system: Proteus mirabilis; experiment: MIC against Gram-negative bacteria: Proteus mirabilis; settings: for MIC: P. mirabilis
Summary of the method: as §1

[11] = test system: Serratia marcescens; experiment: MIC against Gram-negative bacteria: Serratia marcescens; settings: for MIC: S. marcescens
Summary of the method: as §1

[12] = 10 h cultivation at 37° C., 5×10^5 CFU/mL
[13] = 96-well plate, 5×10^5 CFU/mL, 37° C., 10 h
[14] = 10 h cultivation at 37° C., 5×10^5 CFU/mL, two-fold serial dilution
[15] = Moraxella catarrhalis, 96-well plate, 5×10^5 CFU/mL, 37° C., 10 h
[16] = Pseudomonas aeruginosa, 96-well plate, 5×10^5 CFU/mL, 37° C., 10 h
[17] = Proteus vulgaris, 96-well plate, 5×10^5 CFU/mL, 37° C., 10 h
[18] = Enterobacter cloacae, 96-well plate, 5×10^5 CFU/mL, 37° C., 10 h
[19] = Aeromonas hydrophila, 96-well plate, 5×10^5 CFU/mL, 37° C., 10 h
[20] = Klebsiella pneumonia, 96-well plate, 5×10^5 CFU/mL, 37° C., 10 h
[21] = Citrobacter diversus, 96-well plate, 5×10^5 CFU/mL, 37° C., 10 h
[22] = E. coli BL21, 96-well plate, 5×10^5 CFU/mL, 37° C., 10 h
[23] = Proteus mirabilis, 96-well plate, 5×10^5 CFU/mL, 37° C., 10 h
[24] = Serratia marcescens, 96-well plate, 5×10^5 CFU/mL, 37° C., 10 h

PRT399 (DVDECRMLAHLCAHGECINSLGSFRCHCQAGYTPDATATTCL; listed as Homo sapiens)
MIC [1, 12]: 50 µg/mL
MIC [2, 12]: 12.5 µg/mL
MIC [3, 12]: 50 µg/mL
MIC [4, 12]: 12.5 µg/mL
MIC [5, 12]: 50 µg/mL
MIC [6]: 12.5 µg/mL
MIC [7, 12]: 50 µg/mL
MIC [8, 12]: 12.5 µg/mL
MIC ([9]; E. coli BL21, 10 h cultivation at 37° C., 5×10^5 CFU/mL): 50 µg/mL
MIC [10, 12]: 12.5 µg/mL
MIC [11, 12]: 12.5 µg/mL

PRT1440 (DKDECSKDNGGCQHECVNTMGSYMCQCRNGFVLHDNKHDCK; listed as Homo sapiens)
MIC against M. catarrhalis ([1]; Moraxella catarrhalis, 5×10^5 CFU/mL, 10 h cultivation at 37° C.): 12.5 µg/mL
MIC against P. aeruginosa ([2]; Pseudomonas aeruginosa, 5×10^5 CFU/mL, 10 h cultivation at 37° C.): 12.5 µg/mL
MIC against P. vulgaris ([3]; Proteus vulgaris, 5×10^5 CFU/mL, 10 h cultivation at 37° C.): 12.5 µg/mL
MIC against E. cloacae ([4]; Enterobacter cloacae, 5×10^5 CFU/mL, 10 h cultivation at 37° C.): 12.5 µg/mL
MIC against A. hydrophila ([5]; Aeromonas hydrophila, 5×10^5 CFU/mL, 10 h cultivation at 37° C.): 25 µg/mL
MIC [6]: 12.5 µg/mL
MIC against K. pneumonia ([7]; Klebsiella pneumonia, 5×10^5 CFU/mL, 10 h cultivation at 37° C.): 25 µg/mL
MIC against C. diversus ([8]; Citrobacter diversus, 5×10^5 CFU/mL, 10 h cultivation at 37° C.): 25 µg/mL
MIC against E. coli BL21 ([9]; E. coli BL21, 5×10^5 CFU/mL, 10 h cultivation at 37° C.): 25 µg/mL
MIC against P. mirabilis ([10]; Proteus mirabilis, 5×10^5 CFU/mL, 10 h cultivation at 37° C.): 25 µg/mL
MIC against S. marcescens ([11]; Serratia marcescens, 5×10^5 CFU/mL, 10 h cultivation at 37° C.): 25 µg/mL

PRT631 (CSCHPQGSVSEQMPCDPVTGQCSCLPHVTARDCSRCYPGFFDLQPGRGCRS; listed as Homo sapiens)
MIC M. catarrhalis [1, 13]: 12.5 µg/mL
MIC P. aeruginosa [2, 13]: 25 µg/mL
MIC P. vulgaris [3, 13]: 12.5 µg/mL
MIC E. cloacae [4, 13]: 25 µg/mL
MIC A. hydrophila [5, 13]: 12.5 µg/mL
MIC [6]: 25 µg/mL
MIC K. pneumonia [7, 13]: 12.5 µg/mL
MIC C. diversus [8, 13]: 25 µg/mL
MIC E. coli BL21 [9, 13]: 12.5 µg/mL
MIC P. mirabilis [10, 13]: 25 µg/mL
MIC S. marcescens [11, 13]: 25 µg/mL

PRT1192 (DIDECASNPCAAGGTCVDQVDGFECICPEQWVGATCQ; listed as Homo sapiens)
MIC M. catarrhalis [1, 14]: 25 µg/mL
MIC P. aeruginosa [2, 14]: 25 µg/mL
MIC P. vulgaris [3, 14]: 50 µg/mL
MIC E. cloacae [4, 14]: 25 µg/mL
MIC A. hydrophila [5, 14]: 12.5 µg/mL
MIC [6]: 25 µg/mL
MIC K. pneumonia [7, 14]: 50 µg/mL
MIC C. diversus [8, 14]: 50 µg/mL
MIC E. coli BL21 [9, 14]: 12.5 µg/mL
MIC P. mirabilis [10, 14]: 12.5 µg/mL
MIC S. marcescens [11, 14]: 25 µg/mL

PRT75 (DDNICLREPCENYMRCVSVLRFDSSAPFIASSSVLFRPIHPVGGLRCRCPPGFTGDYCE; listed as Homo sapiens)
MIC (μg/mL) M. catarrhalis [1, 15]: 12.5 µg/mL
MIC (μg/mL) P. aeruginosa [2, 16]: 12.5 µg/mL
MIC (μg/mL) P. vulgaris [3, 17]: 12.5 µg/mL
MIC (μg/mL) E. cloacae [4, 18]: 50 µg/mL
MIC (μg/mL) A. hydrophila [5, 19]: 12.5 µg/mL
MIC [6]: 50 µg/mL
MIC (μg/mL) K. pneumonia [7, 20]: 25 µg/mL
MIC (μg/mL) C. diversus [8, 21]: 12.5 µg/mL
MIC (μg/mL) E. coli BL21 [9, 22]: 25 µg/mL
MIC (μg/mL) P. mirabilis [10, 23]: 12.5 µg/mL
MIC (μg/mL) S. marcescens [11, 24]: 12.5 µg/mL

PRT1173 (KCIPHPGCVHGICNEPWQCLCETNWGGQLCD; listed as Homo sapiens)
MIC M. catarrhalis [1, 14]: 12.5 µg/mL
MIC P. aeruginosa [2, 14]: 12.5 µg/mL
MIC P. vulgaris [3, 14]: 12.5 µg/mL
MIC E. cloacae [4, 14]: 12.5 µg/mL
MIC A. hydrophila [5, 14]: 12.5 µg/mL
MIC [6]: 12.5 µg/mL
MIC K. pneumonia [7, 14]: 25 µg/mL
MIC C. diversus [8, 14]: 50 µg/mL
MIC E. coli BL21 [9, 14]: 25 µg/mL
MIC P. mirabilis [10, 14]: 50 µg/mL
MIC S. marcescens [11, 14]: 50 µg/mL

PRT979 (LPDPCLSSPCAHGARCSVGPDGRFLCSCPPGYQGRSCR; listed as Homo sapiens)
MIC ([1]; 10 h cultivation at 37° C.): 25 µg/mL
MIC ([2]; 10 h cultivation at 37° C.): 50 µg/mL
MIC ([3]; 10 h cultivation at 37° C.): 25 µg/mL
MIC ([4]; 10 h cultivation at 37° C.): 50 µg/mL
MIC ([5]; 10 h cultivation at 37° C.): 12.5 µg/mL
MIC [6]: 50 µg/mL
MIC ([7]; 10 h cultivation at 37° C.): 12.5 µg/mL
MIC ([8]; 10 h cultivation at 37° C.): 100 µg/mL
MIC ([9]; E. coli BL21, 10 h cultivation at 37° C.): 12.5 µg/mL
MIC ([10]; 10 h cultivation at 37° C.): 12.5 µg/mL
MIC ([11]; 10 h cultivation at 37° C.): 12.5 µg/mL

PRT695 (DVDECHRVPPPCDLGRCENTPGSFLCVCPAGYQAAPHGASCQ; listed as Homo sapiens)
MIC M. catarrhalis [1, 13]: 50 µg/mL
MIC P. aeruginosa [2, 13]: 25 µg/mL
MIC P. vulgaris [3, 13]: 50 µg/mL
MIC E. cloacae [4, 13]: 12.5 µg/mL
MIC A. hydrophila [5, 13]: 25 µg/mL
MIC [6]: 25 µg/mL
MIC K. pneumonia [7, 13]: 25 µg/mL
MIC C. diversus [8, 13]: 50 µg/mL
MIC E. coli BL21 [9, 13]: 12.5 µg/mL
MIC P. mirabilis [10, 13]: 12.5 µg/mL
MIC S. marcescens [11, 13]: 12.5 µg/mL

PRT1263 (DVDECAQGLDDCHADALCQNTPTSYKCSCKPGYQGEGRQCE; listed as Homo sapiens)
MIC against M. catarrhalis [1, 15]: 12.5 µg/mL
MIC against P. aeruginosa [2, 16]: 12.5 µg/mL
MIC against P. vulgaris [3, 17]: 12.5 µg/mL
MIC against E. cloacae [4, 18]: 50 µg/mL
MIC against A. hydrophila [5, 19]: 12.5 µg/mL
MIC [6]: 100 µg/mL
MIC against K. pneumonia [7, 20]: 25 µg/mL
MIC against C. diversus [8, 21]: 50 µg/mL
MIC against E. coli BL21 [9, 22]: 50 µg/mL
MIC against P. mirabilis [10, 23]: 50 µg/mL
MIC against S. marcescens [11, 24]: 50 µg/mL

PRT1252 (CPLTCDDISGQVTCPPDWPCGSPGCWCPEGQVLGSEGWCV; listed as Homo sapiens)
MIC against M. catarrhalis [1, 15]: 25 µg/mL
MIC against P. aeruginosa [2, 16]: 25 µg/mL
MIC against P. vulgaris [3, 17]: 25 µg/mL
MIC against E. cloacae [4, 18]: 25 µg/mL
MIC against A. hydrophila [5, 19]: 50 µg/mL
MIC [6]: 12.5 µg/mL
MIC against K. pneumonia [7, 20]: 12.5 µg/mL
MIC against C. diversus [8, 21]: 12.5 µg/mL
MIC against E. coli BL21 [9, 22]: 50 µg/mL
MIC against P. mirabilis [10, 23]: 50 µg/mL
MIC against S. marcescens [11, 24]: 12.5 µg/mL

Reference: patent publication US9833497B2, “Human originated EGF domain proteins and use of the same” (CHENGDU SOURCEBIO LIMITED-LIABILITY COMPANY, priority 2013, dated 2017)
